{
  "source": "paper PMC10629583",
  "about": "“Specific inhibition of an anticancer target, polo-like kinase 1, by allosterically dismantling its mechanism of substrate recognition” (Proceedings of the National Academy of Sciences of the …, 2023)",
  "molecular_target": "T1, PBD1 F559E mutant (Homo sapiens, UniProt P53350, F559E)",
  "T1 construct": "constructs expressing PBD1 (residues 345–603) WT (pKM7650), F559D (pKM7878), F559E (pKM7879); His; TEV site (N); made in house; host or cells: bacteria (E. coli)",
  "T1 sequence (P53350 345-603 F559E)": "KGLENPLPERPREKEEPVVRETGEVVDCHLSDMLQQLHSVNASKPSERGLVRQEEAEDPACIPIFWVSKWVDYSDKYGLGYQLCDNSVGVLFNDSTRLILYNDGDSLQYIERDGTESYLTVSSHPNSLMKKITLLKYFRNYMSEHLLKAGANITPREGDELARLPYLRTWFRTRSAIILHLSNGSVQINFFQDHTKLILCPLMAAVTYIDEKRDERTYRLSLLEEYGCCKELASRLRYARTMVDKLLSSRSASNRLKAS",
  "experiment": "FP-based binding/inhibition assay, PBD1 F559E",
  "settings": "PBD1 F559E at EC85",
  "protocol": "FP assays were carried out essentially as described previously ([35], [36]). FITC-conjugated ligands (15 nM) were mixed with PBDs at their EC85 concentrations. All the samples were analyzed approximately 30 min after reaction in a 384-well format using the SpectraMax Paradigm multimode microplate detection platform (Molecular Devices). Data were analyzed after carrying out at least three independent experiments using GraphPad Prism software version 8.\nFig. S4. Generation of F559 mutants for in vitro and cell-based assays in Fig. 4. (A) SDS-PAGE showing the proteins used for the FP assays in Fig. 4 A and B. CBB, a Coomassie Brilliant Blue– stained gel. (B) Summary of Kd and EC85 values for PBD1 WT and mutants. The Kd values for PBD1 WT and mutants were determined after extrapolating them from the binding curves as the concentration at which 50% of the FITC-Ahx-DPPLHSpTAI-NH2 are PBD1-bound. The EC85 values indicate the effective concentration of 85% of the maximal concentration calculated for each protein. The FP values were obtained 30 minutes after incubation. For the F559K and F559R mutants, we were not able to determine the EC85 values and therefore used 2 µM of these proteins for the assays in Fig. 4B. N.D., not determined. […]",
  "data": [
    {"compound": "O=c1c2sc(Cl)cc2n2c(=S)[nH]nc2n1CC1CC1", "note": "[Allopole-A]", "values": [
      {"measurement": "Inhibition of FITC-phosphopeptide binding (in words)", "result": "failed to inhibit"}
    ]}
  ]
}
